Data taken from US9890142B2, “PDE4 inhibitor” (Meiji Seika Pharma Co., Ltd., priority 2013, dated 2018).

The molecules below were run on PDE4 (assay: Evaluation of PDE4 inhibition (scintillation proximity assay)). Conditions: inhibition rate relative to control, test compound at 1 μM.
Assay type: biochemical
Procedure: Test Example 1 Evaluation of PDE4 Inhibition
The PDE4 inhibitory activity was measured by using scintillation proximity assay (SPA) as follows: one in which a sample compound dissolved in dimethyl sulfoxide was diluted 10-fold with a buffer solution for reaction containing 50 mM Tris-HCl, pH 7.5, 8.3 mM MgCl2, 1.7 mM EDTA and 0.3 mg/mL bovine serum albumin (BSA) was added at 10 μL/well to a 96-well assay plate. Further, PDE4 diluted 750-fold with a buffer solution for reaction was added at 50 μL/well, then [2,8-^3H]-Adenosine-3′,5′-cyclic phosphate triethylammonium salt diluted 1000-fold with a buffer solution for reaction was added at 40 μL/well, and the plate was left standing at room temperature for 120 minutes. Thereafter, a suspension of RNA binding YSi-SPA Beads containing 200 mM ZnSO4 was added at 50 μL/well, and the plate was left standing at room temperature for 15 minutes to adsorb the enzyme reaction product onto the Beads. Thereafter, the radioactivity was measured with a liquid scintillation counter for 96-well plates. When one supplemented with only a buffer solution for reaction without adding the enzyme preparation was used as a blank and one supplemented with the enzyme preparation but supplemented with only dimethyl sulfoxide instead of the sample solution was used as a control, the inhibition rate of the test compound relative to the control was calculated according to the following calculation expression: Inhibition rate (%)={1−(Numeric value from the addition of each sample−Blank value)/(Control value−Blank value)}×100

Compound | PDE4 inhibitory activity (1 μM (%)) [%]
C[C@H]1CNCCN1c1nc2cc(Cl)cc(-c3ncc(Cl)s3)c2o1 [Example 74, (S)-5-Chloro-7-(5-chlorothiazol-2-yl)-2-(2-methylpiperazin-1-yl)benzoxazole] | 83
C[C@H]1CNCCN1c1nc2cc(Cl)cc(Cc3ccccc3)c2o1 [Example 75, (S)-7-Benzyl-5-chloro-2-(2-methylpiperazin-1-yl)benzoxazole] | 45
C[C@H]1CNCCN1c1nc2cc(Cl)cc(-c3ncsc3CO)c2o1 [Example 76, (S)-5-Chloro-7-(5-(hydroxymethyl)thiazol-4-yl)-2-(2-methylpiperazin-1-yl)benzoxazole] | 73
C[C@H]1CNCCN1c1nc2cc(Cl)cc(Oc3nccs3)c2o1 [Example 77, (S)-5-Chloro-2-(2-methylpiperazin-1-yl)-7-(thiazol-2-yloxy)benzoxazole] | 30
C[C@H]1CNCCN1c1nc2cc(Cl)cc(-c3ncc([N+](=O)[O-])s3)c2o1 [Example 78, (S)-5-Chloro-2-(2-methylpiperazin-1-yl)-7-(5-nitrothiazol-2-yl)benzoxazole] | 58
COc1cccnc1-c1cc(Cl)cc2nc(N3CCNC[C@@H]3C)oc12 [Example 79, (S)-5-Chloro-7-(3-methoxypyridin-2-yl)-2-(2-methylpiperazin-1-yl)benzoxazole] | 53
C[C@H]1CNCCN1c1nc2cc(Cl)cc(-c3ccc(F)cc3)c2o1 [Example 81, (S)-5-Chloro-7-(4-fluorophenyl)-2-(2-methylpiperazin-1-yl)benzoxazole] | 68
C[C@H]1CNCCN1c1nc2c(C(F)(F)F)c(Cl)cc(-c3ccccn3)c2o1 [Example 82, (S)-5-Chloro-2-(2-methylpiperazin-1-yl)-7-(pyridin-2-yl)-4-(trifluoromethyl)benzoxazole] | 94
C[C@H]1CNCCN1c1nc2c(C(F)(F)F)c(Cl)cc(-n3cccn3)c2o1 [Example 83, (S)-5-Chloro-2-(2-methylpiperazin-1-yl)-7-(1H-pyrazol-1-yl)-4-(trifluoromethyl)benzoxazole] | 92
C[C@H]1CNCCN1c1nc2c(C(F)(F)F)c(Cl)cc(-c3nccs3)c2o1 [Example 84, (S)-5-Chloro-2-(2-methylpiperazin-1-yl)-7-(thiazol-2-yl)-4-(trifluoromethyl)benzoxazole] | 95
C[C@H]1CNCCN1c1nc2cc(Cl)c(C(F)(F)F)c(-c3ccccn3)c2o1 [Example 85, (S)-5-Chloro-2-(2-methylpiperazin-1-yl)-7-(pyridin-2-yl)-6-(trifluoromethyl)benzoxazole] | 26
C[C@H]1CNCCN1c1nc2c(OC(F)(F)F)c(Cl)cc(-c3ccccn3)c2o1 [Example 86, (S)-5-Chloro-2-(2-methylpiperazin-1-yl)-7-(pyridin-2-yl)-4-(trifluoromethoxy)benzoxazole] | 91
C[C@H]1CNCCN1c1nc2c(OC(F)(F)F)c(Cl)cc(-c3nccs3)c2o1 [Example 87, (S)-5-Chloro-2-(2-methylpiperazin-1-yl)-7-(thiazol-2-yl)-4-(trifluoromethoxy)benzoxazole] | 96
C[C@H]1CNCCN1c1nc2c(OC(F)(F)F)c(Cl)cc(-n3cccn3)c2o1 [Example 88, (S)-5-Chloro-2-(2-methylpiperazin-1-yl)-7-(1H-pyrazol-1-yl)-4-(trifluoromethoxy)benzoxazole] | 95
C[C@H]1CNCCN1c1nc2c(F)c(F)cc(-c3ccccn3)c2o1 [Example 89, (S)-4,5-Difluoro-2-(2-methylpiperazin-1-yl)-7-(pyridin-2-yl)benzoxazole] | 88
C[C@H]1CNCCN1c1nc2c(F)c(F)cc(-c3nccs3)c2o1 [Example 90, (S)-4,5-Difluoro-2-(2-methylpiperazin-1-yl)-7-(thiazol-2-yl)benzoxazole] | 96
C[C@H]1CNCCN1c1nc2c(F)c(F)cc(-n3cccn3)c2o1 [Example 91, (S)-4,5-Difluoro-2-(2-methylpiperazin-1-yl)-7-(1H-pyrazol-1-yl)benzoxazole] | 89
C[C@H]1CNCCN1c1nc2cc(Cl)c(F)c(-c3ccccn3)c2o1 [Example 92, (S)-5-Chloro-6-fluoro-2-(2-methylpiperazin-1-yl)-7-(pyridin-2-yl)benzoxazole] | 71
C[C@H]1CNCCN1c1nc2cc(Cl)c(F)c(-c3nccs3)c2o1 [Example 93, (S)-5-Chloro-6-fluoro-2-(2-methylpiperazin-1-yl)-7-(thiazol-2-yl)benzoxazole] | 95
C[C@H]1CNCCN1c1nc2cc(Cl)c(F)c(-n3cccn3)c2o1 [Example 94, (S)-5-Chloro-6-fluoro-2-(2-methylpiperazin-1-yl)-7-(1H-pyrazol-1-yl)benzoxazole] | 62

Compound | PDE4 inhibitory activity (1 μM (%)) [%]
CCCc1cc(Cl)cc2nc(N3CCNC[C@@H]3C)oc12 [Example 95, (S)-5-Chloro-2-(2-methylpiperazin-1-yl)-7-n-propylbenzoxazole] | 71
C[C@H]1CNCCN1c1nc2cc(Cl)cc(C(=O)N(C)C)c2o1 [Example 96, (S)-5-Chloro-7-dimethylaminocarbonyl-2-(2-methylpiperazin-1-yl)benzoxazole] | <10
CCN(CC)C(=O)c1cc(Cl)cc2nc(N3CCNC[C@@H]3C)oc12 [Example 97, (S)-5-Chloro-7-diethylaminocarbonyl-2-(2-methylpiperazin-1-yl)benzoxazole] | 10
C[C@H]1CNCCN1c1nc2cc(Cl)cc(C(=O)NO)c2o1 [Example 98, (S)-5-Chloro-7-hydroxyaminocarbonyl-2-(2-methylpiperazin-1-yl)benzoxazole] | <10
C[C@H]1CNCCN1c1nc2cc(Cl)cc(C(=O)O)c2o1 [Example 99, (S)-5-Chloro-7-carboxy-2-(2-methylpiperazin-1-yl)benzoxazole] | <10
CNC(=O)c1cc(Cl)cc2nc(N3CCNC[C@@H]3C)oc12 [Example 100, (S)-5-Chloro-7-methylaminocarbonyl-2-(2-methylpiperazin-1-yl)benzoxazole] | 16
CCNC(=O)c1cc(Cl)cc2nc(N3CCNC[C@@H]3C)oc12 [Example 101, (S)-5-Chloro-7-ethylaminocarbonyl-2-(2-methylpiperazin-1-yl)benzoxazole] | 27
C[C@H]1CNCCN1c1nc2cc(F)cc(-c3ccccn3)c2o1 [Example 102, (S)-5-Fluoro-2-(2-methylpiperazin-1-yl)-7-(pyridin-2-yl)benzoxazole] | 85
C[C@H]1CNCCN1c1nc2cc(F)cc(-c3nccs3)c2o1 [Example 103, (S)-5-Fluoro-2-(2-methylpiperazin-1-yl)-7-(thiazol-2-yl)benzoxazole] | 96
C[C@H]1CNCCN1c1nc2cc(F)cc(-c3ncco3)c2o1 [Example 104, (S)-5-Fluoro-2-(2-methylpiperazin-1-yl)-7-(oxazol-2-yl)benzoxazole] | 88
C[C@H]1CNCCN1c1nc2cc(Cl)cc(-c3ncon3)c2o1 [Example 105, (S)-5-Chloro-2-(2-methylpiperazin-1-yl)-7-(1,2,4-oxadiazol-3-yl)benzoxazole] | 61
C[C@H]1CNCCN1c1nc2cc(Cl)cc(C3=NCCO3)c2o1 [Example 106, (S)-5-Chloro-7-(4,5-dihydro-oxazol-2-yl)-2-(2-methylpiperazin-1-yl)benzoxazole] | 42
COCc1cc(Cl)cc2nc(N3CCNC[C@@H]3C)oc12 [Example 107, (S)-5-Chloro-7-(methoxymethyl)-2-(2-methylpiperazin-1-yl)benzoxazole] | 66
C[C@H]1CNCCN1c1nc2cc(Cl)cc(-c3ccon3)c2o1 [Example 108, (S)-5-Chloro-7-(isoxazol-3-yl)-2-(2-methylpiperazin-1-yl)benzoxazole] | 66
C[C@H]1CNCCN1c1nc2cc(Cl)cc(-c3ccno3)c2o1 [Example 109, (S)-5-Chloro-7-(isoxazol-5-yl)-2-(2-methylpiperazin-1-yl)benzoxazole] | 61
C[C@H]1CNCCN1c1nc2cc(Cl)cc(Br)c2o1 [Example 110, (S)-7-Bromo-5-chloro-2-(2-methylpiperazin-1-yl)benzoxazole] | 57
C[C@H]1CNCCN1c1nc2cc(C#N)cc(-c3ccccn3)c2o1 [Example 111, (S)-5-Cyano-2-(2-methylpiperazin-1-yl)-7-(pyridin-2-yl)benzoxazole] | 83
C[C@H]1CNCCN1c1nc2cc(C#N)cc(-c3nccs3)c2o1 [Example 112, (S)-5-Cyano-2-(2-methylpiperazin-1-yl)-7-(thiazol-2-yl)benzoxazole] | 94
C[C@H]1CNCCN1c1nc2cc(C#N)cc(-c3ncco3)c2o1 [Example 113, (S)-5-Cyano-2-(2-methylpiperazin-1-yl)-7-(oxazol-2-yl)benzoxazole] | 71
